Results as given in patent US12077503B2, “Substituted cyclic amides and their use as herbicides” (FMC CORPORATION, priority 2015, dated 2024).

Columns and labels:
Assay type in all cases: in vivo
[1] = test system: Galium (catchweed bedstraw, Galium aparine); assay: Test A postemergence
Outline: (§1)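 Compounds were formulated in a non-phytotoxic solvent mixture with surfactant and applied as a preemergence directed soil spray after seeding, or sprayed postemergence over plants 2 to 10 cm tall at the one- to two-leaf stage. Evaluation after about 10 d compared treated with untreated controls, using a scale from 0 (no effect) to 100 (complete control).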

Kochia (Kochia scoparia) [2] = assay: Test A postemergence
Outline: as §1

[3] = test system: ragweed (common ragweed, Ambrosia elatior); assay: Test A postemergence
Outline: as §1

corn (Zea mays) = assay: Test A postemergence
Outline: as §1

[4] = test system: wheat (Triticum aestivum); assay: Test A postemergence
Outline: as §1

[5] = test system: giant foxtail (Setaria faberii); assay: Test A postemergence
Outline: as §1

[6] = test system: blackgrass (Alopecurus myosuroides); assay: Test A postemergence
Outline: as §1

[7] = test system: pigweed (Amaranthus retroflexus); assay: Test A postemergence
Outline: as §1

[8] = test system: ryegrass, Italian (Italian ryegrass, Lolium multiflorum); assay: Test A postemergence
Outline: as §1

[9] = test system: barnyardgrass (Echinochloa crus-galli); assay: Test A postemergence
Outline: as §1

[10] = test system: sedge, umbrella (small-flower umbrella sedge, Cyperus difformis); assay: Test B flooded paddy test; conditions: Flood, 500 g ai/ha; 0 to 100 scale where 0 is no effect and 100 is complete control; 13 to 15 d
Outline: (§2)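 2-leaf plants; pots flooded 3 cm over soil; cpd added to paddy water; depth held; greenhouse 13–15 d; visual rating vs controls, 0 = no effect, 100 = complete control.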

rice (Oryra sativa) = assay: Test B flooded paddy test; conditions: Flood, 500 g ai/ha; 0 to 100 scale where 0 is no effect and 100 is complete control; 13 to 15 d
Outline: as §2

[11] = test system: barnyardgrass (Echinochloa crus-galli); assay: Test B flooded paddy test; conditions: Flood, 500 g ai/ha; 0 to 100 scale where 0 is no effect and 100 is complete control; 13 to 15 d
Outline: as §2

[12] = test system: ducksalad (Heteranthera limosa); assay: Test B flooded paddy test; conditions: Flood, 500 g ai/ha; 0 to 100 scale where 0 is no effect and 100 is complete control; 13 to 15 d
Outline: as §2

Kochia (Kochia scoparia) [13] = assay: Test A preemergence
Outline: as §1

[14] = test system: ragweed (common ragweed, Ambrosia elatior); assay: Test A preemergence
Outline: as §1

[15] = test system: giant foxtail (Setaria faberii); assay: Test A preemergence
Outline: as §1

[16] = test system: pigweed (Amaranthus retroflexus); assay: Test A preemergence
[17] = test system: ryegrass, Italian (Italian ryegrass, Lolium multiflorum); assay: Test A preemergence
Outline: as §1

[18] = test system: barnyardgrass (Echinochloa crus-galli); assay: Test A preemergence
Outline: as §1

[19] = 125 g ai/ha, postemergence, visual injury after approximately 10 d, 0 to 100 scale (0 no effect, 100 complete control)
[20] = 500 g ai/ha, postemergence, visual injury, 0 to 100 scale (0 no effect, 100 complete control), approx. 10 d
[21] = 125 g ai/ha, preemergence, visual rating after approx. 10 d, 0 to 100 scale where 0 is no effect and 100 is complete control
[22] = 500 g ai/ha, preemergence, 0 to 100 scale, 0 = no effect, 100 = complete control
[23] = 125 g ai/ha, postemergence, visual rating after approx. 10 d, 0 to 100 scale (0 no effect, 100 complete control)
[24] = Postemergence, 500 g ai/ha, 0 to 100 scale where 0 is no effect and 100 is complete control
[25] = 125 g ai/ha, postemergence, visual injury rating on 0 to 100 scale (0 no effect, 100 complete control), approx. 10 d
[26] = 125 g ai/ha, Preemergence, visual injury after approximately 10 d, 0 to 100 scale where 0 is no effect and 100 is complete control
[27] = Preemergence, 500 g ai/ha, visual injury approx. 10 d

O=C1NCC(c2cccc3ccccc23)C1C(=O)Nc1ccccc1C(F)(F)F (racemic) [Compound 712]
0: Plant response rating, Galium [1, 19] | Plant response rating, Galium [1, 20] | Plant response rating, Kochia (Kochia (Kochia scoparia) [2]; [19]) | Plant response rating, Kochia (Kochia (Kochia scoparia) [2]; [20]) | Plant response rating, Ragweed [3, 19] | Plant response rating, Ragweed [3, 20] | Plant response rating, Corn (corn (Zea mays); [19]) | Plant response rating, Corn (corn (Zea mays); [20]) | Plant response rating, Wheat [4, 19] | Plant response rating, Wheat [4, 20] | Plant response rating, Foxtail, Giant [5, 19] | Plant response rating, Foxtail, Giant [5, 20] | Plant response rating, Blackgrass [6, 19] | Plant response rating, Blackgrass [6, 20] | Plant response rating, Pigweed [7, 19] | Plant response rating, Pigweed [7, 20] | Plant response rating, Ryegrass, Italian [8, 19] | Plant response rating, Ryegrass, Italian [8, 20] | Plant response rating, Barnyardgrass [9, 19] | Plant response rating, Barnyardgrass [9, 20] | Plant response rating, Sedge, Umbrella [10] | Plant response rating, Rice (rice (Oryra sativa)) | Plant response rating, Barnyardgrass [11] | Plant response rating, Ducksalad [12] | Plant response rating, Kochia (Kochia (Kochia scoparia) [13]; [21]) | Plant response rating, Kochia (Kochia (Kochia scoparia) [13]; [22]) | Plant response rating, Ragweed [14, 21] | Plant response rating, Ragweed [14, 22] | Plant response rating, Foxtail, Giant [15, 21] | Plant response rating, Foxtail, Giant [15, 22] | Plant response rating, Pigweed [16, 21] | Plant response rating, Pigweed [16, 22] | Plant response rating, Ryegrass, Italian [17, 21] | Plant response rating, Ryegrass, Italian [17, 22] | Plant response rating, Barnyardgrass [18, 21] | Plant response rating, Barnyardgrass [18, 22]

O=C1NCC(c2ccc(Oc3ccccc3)cc2)C1C(=O)Nc1ccc(F)cc1F (racemic) [Compound 535]
20: Plant response rating, Ducksalad [12]
50: Plant response rating, Sedge, Umbrella [10]
0: Plant response rating, Galium [1, 23] | Plant response rating, Galium [1, 24] | Plant response rating, Kochia (Kochia (Kochia scoparia) [2]; [23]) | Plant response rating, Kochia (Kochia (Kochia scoparia) [2]; [24]) | Plant response rating, Ragweed [3, 23] | Plant response rating, Ragweed [3, 24] | Plant response rating, Corn (corn (Zea mays); [23]) | Plant response rating, Corn (corn (Zea mays); [24]) | Plant response rating, Wheat [4, 23] | Plant response rating, Wheat [4, 24] | Plant response rating, Foxtail, Giant [5, 23] | Plant response rating, Foxtail, Giant [5, 24] | Blackgrass plant response rating [6, 25] | Plant response rating, Blackgrass [6, 24] | Plant response rating, Pigweed [7, 23] | Plant response rating, Pigweed [7, 24] | Plant response rating, Ryegrass, Italian [8, 23] | Plant response rating, Ryegrass, Italian [8, 24] | Barnyardgrass plant response rating [9, 25] | Plant response rating, Barnyardgrass [9, 24] | Plant response rating, Rice (rice (Oryra sativa)) | Plant response rating, Barnyardgrass [11] | Plant response rating, Kochia (Kochia (Kochia scoparia) [13]; [26]) | Kochia plant response rating (0 to 100 scale, 0 is no effect, 100 is complete control) (Kochia (Kochia scoparia) [13]; [27]) | Plant response rating, Ragweed [14, 26] | Ragweed plant response rating (0 to 100 scale, 0 is no effect, 100 is complete control) [14, 27] | Plant response rating, Foxtail, Giant [15, 26] | Foxtail, Giant plant response rating (0 to 100 scale, 0 is no effect, 100 is complete control) [15, 27] | Plant response rating, Pigweed [16, 26] | Pigweed plant response rating (0 to 100 scale, 0 is no effect, 100 is complete control) [16, 27] | Plant response rating, Ryegrass, Italian [17, 26] | Ryegrass, Italian plant response rating (0 to 100 scale, 0 is no effect, 100 is complete control) [17, 27] | Plant response rating, Barnyardgrass [18, 26] | Barnyardgrass plant response rating (0 to 100 scale, 0 is no effect, 100 is complete control) [18, 27]
